# Experimental data reported in patent US20110124723A1, “Compounds for Preventing and Treating Plasmodium Infections” (UNIVERSITE PIERRE ET MARIE CURIE (PARIS 6), priority 2007, published 2011).
# Counter-ions that a name gives are not always drawn.
# How the values were obtained:
# [1] = test system: P. yoelii sporozoites (265 BY strain); experiment: Challenge of mice with P. yoelii sporozoites, parasitemia in blood smears; assay type: in vivo; settings: Swiss mice, 5,000 sporozoites IV; for reduction of parasitemia with respect to controls: after 12 days
# Procedure: All animal were kept and used in accordance with institutional guidelines and European regulations. Female 6-week-old Swiss mice (René Janvier, Le Genest-Saint-Isle, France) weighing 24-31 g were randomly allotted to all groups.
# The drugs tested were administered intra-peritoneally (IP). Monensin (MN) (Monensin A sodium salt, ref. M5273, Sigma) was diluted in PBS-methanol 2% and Nigericin (NG) (Nigericin sodium salt, ref. N7143, Sigma), another polyether ionophore antibiotic, in PBS-DMSO 2%.
# The drugs were administrated on days −1, 0, +1, +2 (+40 h), and the mice challenged on day 0 by intravenous injection of 5,000 P. yoelii sporozoites (265 BY strain).
# Group 1 received 25 mg/kg/day of MN and group 2 received PBS-methanol 2%. These groups received the drug and the solvent from day −1. Group 3 received 25 mg/kg/day of MN and group 4 received PBS-methanol 2% from day 0 post-infection. Group 5 received 35 mg/kg/day of NG and group 6 received PBS-DMSO 2% from day −1. Group 7 and 8 received 35 mg/kg/day of NG and PBS-DMSO 2% respectively from day 0 post-infection.
# All groups were challenged with 5,000 sporozoites at day 0. Parasites were enumerated by blinded microscopic examination of Giemsa-stained tail-blood smears collected at day 3 until day 9, day 12 and day 15 post-infection. A mouse was considered negative when no parasites could be observed in 20,000 red blood cells (50 fields under a 50× light microscope objective) on any day during the period of observation.
# [2] = test system: pre-erythrocytic development stage of P. yoelii; experiment: Real-time PCR quantification of the liver stage parasite burden; assay type: in vivo; settings: mice, 25 mg/kg IP on days 0 and +1; 2.5×10^5 sporozoites IV; liver 40 h post-infection
# Procedure: MN was administered IP on days 0 and day +1. Group 1 received 25 mg/kg of MN, whereas the control groups received the MN solvent (PBS-Methanol 2%). Mice were then challenged on day 0 by intra-venous injection with 2.5×10^5 P. yoelii sporozoites and sacrificed 40 h post-infection.
# A piece of liver (0.2 g) was harvested and total RNA extracted using the Micro to Midi Kit (Invitrogen, France) according to the manufacturer's instructions and treated with Dnase Turbo DNA free (Ambion, France). Five micrograms of total RNA was reverse transcribed by Superscript II (Invitrogen) and an equivalent of 100 ng RNA was used for each TaqMan® PCR reactions on a MX4000 multiplex quantitative PCR system (Stratagene, France).
# Mouse β-actin primers (forward […] (SEQ ID NO: 4), reverse […] (SEQ ID NO: 5); Invitrogen) and probe (HEX-[…]-BHQ2 (SEQ ID NO: 6); MWG biotech) were used for normalisation.
# P. yoelii 18S rRNA and mouse β-actin PCR fragments were cloned into plasmids and used in a 10-fold dilution series to determine a standard curve.
# Absolute transcript copy number for each gene was calculated based on the external standard curve. Quantitative parasite burden was expressed as the ratio between absolute copy numbers of P. yoelii 18S ribosomal cDNA and mouse β-actin cDNA to account for experimental differences. TaqMan® test sample and plasmid standards were done in quadruplet.
# P. yoelii sporozoites [3] = experiment: Sporozoite migration assay (HepG2CD81 cells, FITC-dextran, flow cytometry); assay type: cell-based; settings: all concentrations (5 μM, 5 nM and 5 picomolar); 2 h at 37° C.; vs untreated sporozoites
# Procedure: P. yoelii sporozoites treated with three concentrations (5 μM, 5 nM and 5 picomolar) of MN were incubated with HepG2CD81 cells for 2 h at 37° C. in the continued presence of with 0.5 mg/ml FITC-dextran. After 2 h at 37° C., cells were washed and fixed with PBS-formaldehyde 1%, and FITC-positive cells were counted by flow cytometry.
# P. yoelii sporozoites [4] = experiment: Invasion assay, first experiment: pre-treatment of sporozoites, then hepatocytes, EEF count; assay type: cell-based; settings: washed, 48 h with hepatocytes
# Procedure: Two experiments were performed.
# The first experiment consisted in pre-treatment of P. yoelii sporozoites with MN at 5 pM, 0.5 μM, or 5 μM, for 1 h at room temperature then washed and added to hepatocytes. Sporozoites controls were pre-treated with medium alone and incubated 1 h at room temperature in the same conditions. Parasites were then incubated with hepatocytes for 48 h at 37° C. in 5% CO2, stained, and examined microscopically to determine the quantity of exo-erythrocytic forms (EEF) (Basco et al., 1999; Mahmoudi et al., 2003).
# P. yoelii sporozoites [5] = experiment: Invasion assay, second experiment: infecting hepatocytes with sporozoites in the presence of MN, EEF count; assay type: cell-based; settings: all concentrations (50 pM, 1 μM, 10 μM) present for 3 h during infection, then 45 h culture
# Procedure: The second experiment consisted in infecting hepatocytes with sporozoites in the presence of MN at 50 pM, 1 μM, or 10 μM. After 3 h of incubation, MN was eliminated and the cultures were maintained 45 h at 37° C. in 5% CO2.
# The cultures were stained and the quantity of exo-erythrocytic forms (EEF) was determined microscopically.
# P. yoelii sporozoites [6] = experiment: Maturation assay: hepatocyte cultures infected with sporozoites, then treated; assay type: cell-based; settings: all concentrations (50 pM, 1 μM, 10 μM) for 45 h after 3 h infection and washing
# Procedure: The experiment consisted in infecting hepatocytes cultures with P. yoelii sporozoites for 3 h, washing the cultures and then treating them with MN 50 pM, 1 μM, or 10 μM, for 45 h at 37° C.
# P. yoelii blood stage = experiment: Blood stage infection of mice with P. yoelii-infected red blood cells; assay type: in vivo; settings: 25 mg/kg at day-3, day-2, day-1 before infection
# Procedure: Two groups of mice were treated at day-3, day-2 and day-1 before infection with MN (25 mg/kg) or solvent (PBS-Methanol-2%). At day 0 the mice were inoculated IP with 4×10^5 P. yoelii-infected red blood cells. From day 3 post-infection, an enumeration of parasites in blood smears was conducted until day 10 post-infection.
# [7] = test system: P. yoelii oocysts in Anopheles stephensi; experiment: Transmission to mosquito: oocysts in Anopheles stephensi midguts fed on treated mice; assay type: in vivo; settings: Anopheles stephensi fed 2 hours on MN treated mice; 30 midguts dissected 8 days later
# Procedure: The mice of the MN treated group and the control group of Example 3 were anesthetized and placed for 2 hours over a cage with 100 female laboratory-bred Anopheles stephensi. Oocysts were enumerated in 30 mosquito midguts dissected 8 days later.
Structure (SMILES),"protection from erythrocytic infection (mice with no parasite in blood smears) ([1]; 25 mg/kg/day IP daily for 3 days (treated, from day 0))","protection from erythrocytic infection (mice with no parasite in blood smears) ([1]; 25 mg/kg/day IP daily for 4 days (pre-treated, from day -1))","inhibition on parasite development (liver parasite burden, 18S rRNA/β-actin) [2] [%]",inhibition of sporozoites migration (P. yoelii sporozoites [3]) [%],inhibition of parasite development (EEF) (P. yoelii sporozoites [4]; sporozoites pre-treated 1 h with 5 pM) [%],inhibition of parasite development (EEF) (P. yoelii sporozoites [4]; sporozoites pre-treated 1 h with 0.5 μM),inhibition of parasite development (EEF) (P. yoelii sporozoites [4]; sporozoites pre-treated 1 h with 5 μM),inhibition of parasite development (EEF) (P. yoelii sporozoites [5]),inhibition of parasite development (P. yoelii sporozoites [6]),"parasitemia course (P. yoelii blood stage; 4×10^5 infected red blood cells IP, blood smears day 3-10)",male gametocytes in blood (P. yoelii blood stage; vs untreated group),oocysts in mosquito midguts [7],reduction of parasitemia with respect to controls ([1]; 35 mg/kg/day IP daily for 3 days (treated)) [%],reduction of parasitemia with respect to controls ([1]; 35 mg/kg/day IP daily for 4 days (pretreated)) [%]
"CC[C@@]1([C@H]2O[C@H]([C@H]3O[C@@](O)(CO)[C@H](C)C[C@@H]3C)C[C@H]2C)CC[C@H]([C@@]2(C)CC[C@]3(C[C@H](O)[C@@H](C)[C@@H]([C@H](C)[C@H](OC)[C@@H](C)C(=O)[O-])O3)O2)O1.[Na+] [MN, Monensin A sodium salt]",100 % of the mice,100 % of the mice,96.8,93,96.26,complete inhibition,complete inhibition,totally inhibited parasite development,completely inhibited parasite development,"Increasing parasitemia, although delayed by comparison with the control group",no male gametocytes were observed,No oocyst could be observed,,
"CO[C@@H]1C[C@@H](C[C@H]2CC[C@H](C)[C@H]([C@@H](C)C(=O)O)O2)O[C@]2(O[C@](C)([C@H]3CC[C@@](C)([C@@H]4O[C@@H]([C@H]5O[C@@](O)(CO)[C@H](C)C[C@@H]5C)C[C@@H]4C)O3)C[C@H]2C)[C@@H]1C [NG, Nigericin sodium salt, reference compound]",,,,,,,,,,,,,51,71
